This is an account of results in patent publication US6521751B1, “Recombinant nucleic acid sequences and methods for determining both genotoxicity and mutagenicity of a sample and the kinetics of the genotoxicity” (Vlaamse Instelling voor Technologisch Onderzoek (VITO), priority 1998, dated 2003).

Structures are written as SMILES. Values joined by “and” are separate entries in the source; they are usually repeats but may differ in a detail not shown here. Equal values may be shown once. Read-outs that look alike come from different tables or passages of the source.

Series [1] concerns TA98 and TA104 containing pMOL1067. The experiment in a line: Induction kinetics with pMOL1067. The series is classed as cell-based, S. typhimurium. Here is the method: The reaction of the different constructs when more than one genotoxic product is present in the test sample. was examined. This is an important aspect, since environmental samples often contain more than one genotoxic pollutant. Also in this regard many pharmaceutical products that have to be tested for genotoxicity can be a combination of different active genotoxic substances (e.g. anticancer or anti AIDS drugs). The experiments were performed with TA98 and TA104 containing either pMOL1067 or pMOL890. These two constructs were chosen since they show similar induction kinetics and the best signal/noise ratio's in S. typhimurium (see FIG. 7 and FIG. 8). As test products, several combinations of MMS and novobiocine were taken. These products were used since they were found by us to have different induction kinetics (e.g., with pMOL1067 MMS gives a maximum after 2 hours, while the maximal signal/noise ratio with novobiocine is observed after 4 hours).

Series [2] deals with S. typhimurium TA98.
The subject of series [3] is S. typhimurium TA100.
Series [4] deals with S. typhimurium TA104.
The subject of series [5] is S. typhimurium TA1535.
The test system of series [6] is S. typhimurium TA1538.
Series [7] relates to S. typhimurium TA98* containing pMOL890.
For series [8], the system named is S. typhimurium TA100* containing pMOL890.
Series [9] deals with S. typhimurium TA104* containing pMOL890.
Series [10] concerns S. typhimurium TA1535* containing pMOL890.
Series [11] deals with S. typhimurium TA1538* containing pMOL890.
In series [12] the test system is S. typhimurium TA104 containing pMOL1066. The note with it: TA104 pMOL1066.
The test system of series [13] is S. typhimurium TA104 containing pMOL1067. As to conditions: TA104 pMOL1067.
Series [14] relates to S. typhimurium TA104 containing pMOL1068. The note with it: TA104 pMOL1068.
Series [15] deals with S. typhimurium TA104 containing pMOL1069. As to conditions: TA104 pMOL1069.
Series [16] relates to S. typhimurium TA98 containing pMOL1067. The note with it: TA98 pMOL1067.
For series [17], the system named is S. typhimurium TA98 containing pMOL1068. The note with it: TA98 pMOL1068.
Series [18] concerns S. typhimurium TA98 containing pMOL890. As to conditions: TA98 pMOL890.
In series [19] the test system is S. typhimurium TA104 containing pMOL890. The note with it: TA104 pMOL890.
The subject of series [20] is TA 98 and TA104 strains containing pMOL1067 or pMOL1068.
In series [21] the test system is E. coli (sfiA-lacZ). As to conditions: cited from earlier work; for MINIMAL DETECTED CONCENTRATION (MDC): literature values.
Series [22] deals with S. typhimurium. The note with it: cited from earlier work.
Series [23] has as its system TA104 (pMOL890). The note with it: M9 medium saturated with 0.1% of the PAH, degrading strain, samples every 3 days.
Series [24] has as its system novel biosensor systems in E. coli and in S. typhimurium strains. Nature of the series: Subject SOS promoter-lux systems (general statements). As to conditions: agents known to give false negative results in the SOS chromotest and the Ames test.
The test system of series [25] is TA98 and TA104 strains containing pMOL890, pMOL1067 or pMOL1068. Nature of the series: Test with the TA98 and TA104 strains containing pMOL890, pMOL1067 or pMOL1068.
The mark [26] stands for this setting: TA 98 and TA104 strains containing pMOL1067 or pMOL1068.

As to `COS(C)(=O)=O` [MMS, Methylmethanesulphonate], in series [1], the “time of maximal signal/noise ratio” value amounted to 2 h. The “Conclusion (Ames test)” value is on record as “−” in series [2], “+” in series [4] and “−” in [6]. The “Number of His^+ revertants” value in [3] (MMS 0.1 μl) is 344 and 392; in series [3] (MMS 0.2 μl) it was 604 and 560; in series [3] (MMS 1 μl) it was 1120 and 1282; in series [5] (MMS 0.1 μl) it was 27 and 18; in series [5] (MMS 0.2 μl), 23 and 24; in [5] (MMS 1 μl), 27 and 38. In addition, the “Number of His^+ revertants” value was 25 and 27 in series [7] (MMS 0.1 μl); 26 and 28 in series [7] (MMS 0.2 μl); 22 and 27 in series [7] (MMS 1 μl); 160 and 152 in [8] (MMS 0.1 μl); 242 and 314 in series [8] (MMS 0.2 μl); 536 and 528 in [8] (MMS 1 μl). In addition, the “Number of His^+ revertants” value was 224 and 218 in series [9] (MMS 0.1 μl); 428 and 325 in series [9] (MMS 0.2 μl); 672 and 724 in [9] (MMS 1 μl); 32 in series [10] (MMS 0.1 μl); 24 in [10] (MMS 0.2 μl); 29 and 26 in series [10] (MMS 1 μl). The “Number of His^+ revertants” value in series [11] (MMS 0.1 μl) is 36 and 28; in series [11] (MMS 0.2 μl), 28 and 27; in [11] (MMS 1 μl), 27 and 29. The “MINIMAL DETECTED CONCENTRATION (MDC)” value in [12], in [13], in [14], in series [15], in series [16] and in series [17] was 7.3 nmol/assay throughout. The “MINIMAL DETECTED CONCENTRATION (MDC)” value was 7.3 nmol/assay in [18], 7.3 nmol/assay in series [19], 20 nmol/assay in series [21] (SOS chromotest) and 60 nmol/assay in [22]. The “OUTCOME (genotoxicity, final outcome)” value in [20] (setting [26]) is given as “pos”. For the same compound, the “SOS (result)” value in series [21] (SOS chromotest, Table 3) is recorded as “pos”. Also, in [22], the “AMES (result)” value was “pos”.

Take `c1ccc2c(c1)-c1cccc3cccc-2c13` [Fluoranthene]: the “OUTCOME (genotoxicity, final outcome)” value in series [20] was “pos”. In addition, the “genotoxicity during bacterial degradation of the PAH” value in series [23] is recorded as “an increase of genotoxicity”. In addition, the “SOS (result)” value in [21] was “pos”. For the same compound, in series [22], the “AMES (result)” value was “pos”.

Turning to `c1ccc2c(c1)Cc1ccccc1-2` [fluorene], the “genotoxicity during bacterial degradation of the PAH” value in [23] is “no significant increase in genotoxicity”.

For the compound `c1ccc2c(c1)ccc1ccccc12` [Phenanthrene], the “OUTCOME (genotoxicity, final outcome)” value in series [20] (setting [26]) is reported as “pos”. In series [23], the “genotoxicity during bacterial degradation of the PAH” value is “an increase followed by a decrease in genotoxicity”. The “SOS (result)” value in [21] (SOS chromotest, Table 3) is “pos”. For the same compound, in series [22] (Ames test, Table 3), the “AMES (result)” value was “neg”. In series [22] (text b127), the “result in the Ames test” value was “False-negative”. In addition, the “result in the novel systems according to the invention” value (“result in the novel systems according” below) in series [24] was “positive”. Moreover, the “result in the test (genotoxicity)” value in series [25] is reported as “positive”.

Consider `CO[C@@H]1[C@@H](OC(N)=O)[C@@H](O)[C@H](Oc2ccc3c(O)c(NC(=O)c4ccc(O)c(CC=C(C)C)c4)c(=O)oc3c2C)OC1(C)C` [novobiocine], for which the “time of maximal signal/noise ratio” value in series [1] amounted to 4 h. Also, the “MINIMAL DETECTED CONCENTRATION (MDC)” value in [12] is on record as 1.26 nmol/assay; in [13], 0.32 nmol/assay; in series [14], 1.26 nmol/assay; in [15], 0.32 nmol/assay; in [16] it was 0.079 nmol/assay; in [17], 0.63 nmol/assay. The “MINIMAL DETECTED CONCENTRATION (MDC)” value in series [18] is on record as 0.57 nmol/assay; in series [19], 1.26 nmol/assay; in series [21] (SOS chromotest), “neg”; in series [22] (AMES, literature values, pos/neg where MDC could not be calculated), “pos”. The “OUTCOME (genotoxicity, final outcome)” value in series [20] (setting [26]) was “pos”. The “SOS (result)” value in series [21] (SOS chromotest, Table 3) is reported as “neg”. Besides, the “result in the SOS chromotest” value in series [21] (text b126) is “negative”. For the same compound, in series [22] (Ames test, Table 3), the “AMES (result)” value is “pos”. Besides, the “result in the novel systems according” value in series [24] was “positive”. Moreover, in series [25], the “result in the test (genotoxicity)” value is “positive”.

As to `OO` [H2O2, hydrogen peroxide], the “MINIMAL DETECTED CONCENTRATION (MDC)” value in series [12] was determined as 11.8 nmol/assay; in series [13], 11.8 nmol/assay; in [14], 11.8 nmol/assay; in series [15], 5.9 nmol/assay; in series [16], 1.5 nmol/assay; in series [17] it was 1.5 nmol/assay. For the same compound, the “MINIMAL DETECTED CONCENTRATION (MDC)” value was 8.5 nmol/assay in series [18], 3.8 nmol/assay in [19], 23 nmol/assay in series [21] (SOS chromotest) and “neg” in series [22]. Moreover, the “OUTCOME (genotoxicity, final outcome)” value in series [20] (setting [26]) is listed as “pos”. The “SOS (result)” value in series [21] (SOS chromotest, Table 3) was “pos”. Moreover, in series [22], the “AMES (result)” value is “neg”. For the same compound, in series [22], the “result in the Ames test” value is reported as “False-negative”. In series [24], the “result in the novel systems according” value was “positive”. The “result in the test (genotoxicity)” value in [25] was “positive”.
